1 compound from patent US10829778B2, “Plants having increased tolerance to herbicides” (BASF SE, priority 2013, dated 2020) can be followed below.

Assay [1] deals with Lolium HPPD. Description: HPPD activity assay, wildtype enzyme. The assay is classed as biochemical. The following applies: Table 12, normalized to Arabidopsis HPPD. How it is done: (§1) HPPD produces homogentisic acid and CO2 from 4-hydroxyphenylpyruvate (4-HPP) and O2. The activity assay for HPPD is based on the analysis of homogentisic acid by reversed phase HPLC.
(§2) The assay mixture can contain 150 mM potassium phosphate buffer pH 7.0, 50 mM L-ascorbic acid, 100 μM Catalase (Sigma-Aldrich), 1 μM FeSO4 and 0.2 units of purified HPPD enzyme in a total volume of 505 μl. 1 unit is defined as the amount of enzyme that is required to produce 1 nmol of HGA per minute at 20° C.
(§3) After a preincubation of 30 min the reaction is started by adding 4-HPP to a final concentration of 0.05 mM. The reaction is allowed to proceed for 45 min at room temperature. The reaction is stopped by the addition of 50 μl of 4.5 M phosphoric acid. The sample is filtered using a […] pore size PVDF filtration device.
(§4) 5 μl of the cleared sample is analyzed on an UPLC HSS T3 column (particle size 1.8 μm, dimensions 2.1×50 mm; Waters) by isocratic elution using 90% 20 mM NaH2PO4 pH 2.2, 10% methanol (v/v).
(§5) HGA is detected electrochemically at 750 mV (mode: DC; polarity: positive) and quantified by integrating peak areas (Empower software; Waters).
(§6) Inhibitors are dissolved in DMSO (dimethylsulfoxide) to a concentration of 0.5 mM. From this stock solution serial five-fold dilutions are prepared in DMSO, which are used in the assay. The respective inhibitor solution accounts for 1% of the assay volume. Thus, final inhibitor concentrations range from […], respectively. Activities are normalized by setting the uninhibited enzyme activity to 100%. IC50 values are calculated using non-linear regression.
(§7) Using methods which are described in the above examples or well known in the art, purified, recombinant wildtype HPPD enzymes are characterized with respect to their kinetic properties and sensitivity towards HPPD inhibiting herbicides. Apparent michaelis constants (Km) and maximal reaction velocities (Vmax) are calculated by non-linear regression with the software GraphPad Prism 5 (GraphPad Software, La Jolla, USA) using a substrate inhibition model. Apparent kcat values are calculated from Vmax assuming 100% purity of the enzyme preparation. Weighted means (by standard error) of Km and IC50 values are calculated from at least three independent experiments. The Cheng-Prusoff equation for competitive inhibition (Cheng, Y. C.; Prusoff, W. H. Biochem Pharmacol 1973, 22, 3099-3108) is used to calculate dissociation constants (Ki).
(§8) Field performance of the HPPD enzyme, which is used as a herbicide tolerance trait may depend not only on its lack of sensitivity towards HPPD inhibiting herbicides but also on its activity. To assess the potential performance of a herbicide tolerance trait a tolerance index (TI) is calculated using the following formula: […]

Assay [2] has as its system Rhodococcus HPPD (Seq ID 44). Description: HPPD activity assay, wildtype enzyme. The assay is classed as biochemical. The following applies: Table 12, normalized to Arabidopsis HPPD; Rhodococcus (Seq ID 44). As for the experimental part:
as §1, §2, §3, §4, §5, §6, §7, §8

Assay [3] relates to Rhodococcus HPPD (Seq ID 46). Kind of assay: HPPD activity assay, wildtype enzyme. The assay is classed as biochemical. Particulars: Table 12, normalized to Arabidopsis HPPD; Rhodococcus (Seq ID 46). As for the experimental part: as §1, §2, §3, §4, §5, §6, §7, §8
For assay [4], the system named is Kordia HPPD. Kind of assay: HPPD activity assay, wildtype enzyme. The assay is classed as biochemical. Particulars: Table 12, normalized to Arabidopsis HPPD. How it is done: as §1, §2, §3, §4, §5, §6, §7, §8
In assay [5] the test system is Avena HPPD. Description: HPPD activity assay, wildtype enzyme. The assay is classed as biochemical, Avena sativa. The following applies: Table 12, normalized to Arabidopsis HPPD. How it is done: as §1, §2, §3, §4, §5
(§9) Inhibitors are dissolved in DMSO (dimethylsulfoxide) to a concentration of 0.5 mM. From this stock solution serial five-fold dilutions are prepared in DMSO, which are used in the assay. […] IC50 values are calculated using non-linear regression. […]

Assay [6] has as its system Picrophilus HPPD. Description: HPPD activity assay, wildtype enzyme. The assay is classed as biochemical, Picrophilus torridus. The following applies: Table 12, normalized to Arabidopsis HPPD. As for the experimental part: as §1, §2, §3, §4, §5, §9
Assay [7] deals with T1, Arabidopsis HPPD (SEQ ID NO:53) (Arabidopsis thaliana, UniProt P93836).
T1 construct: His6 (N); made in house; host or cells: E. coli BL21 (DE3)
T1 sequence (P93836 1-445): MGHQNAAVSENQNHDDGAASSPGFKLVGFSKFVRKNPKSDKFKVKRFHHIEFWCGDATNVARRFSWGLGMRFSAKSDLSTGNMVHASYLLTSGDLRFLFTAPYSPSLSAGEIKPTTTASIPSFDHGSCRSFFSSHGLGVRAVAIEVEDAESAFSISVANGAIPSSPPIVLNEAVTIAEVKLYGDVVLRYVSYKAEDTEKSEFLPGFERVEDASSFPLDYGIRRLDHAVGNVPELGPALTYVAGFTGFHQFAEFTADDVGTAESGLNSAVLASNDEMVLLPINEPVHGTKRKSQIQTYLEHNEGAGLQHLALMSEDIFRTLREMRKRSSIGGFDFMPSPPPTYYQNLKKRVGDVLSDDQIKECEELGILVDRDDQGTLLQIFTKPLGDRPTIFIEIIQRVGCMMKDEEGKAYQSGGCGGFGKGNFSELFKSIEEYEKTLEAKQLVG
Description: HPPD activity assay (HGA by HPLC), wildtype enzyme. The assay is classed as biochemical. How it is done:
as §1, §2, §3, §4, §5
Inhibitors are dissolved in DMSO (dimethylsulfoxide) to a concentration of 0.5 mM. From this stock solution serial five-fold dilutions are prepared in DMSO, which are used in the assay. The respective inhibitor solution accounts for 1% of the assay volume. […] Activities are normalized by setting the uninhibited enzyme activity to 100%. IC50 values are calculated using non-linear regression.
Using methods which are described in the above examples or well known in the art, purified, recombinant wildtype HPPD enzymes are characterized with respect to their kinetic properties and sensitivity towards HPPD inhibiting herbicides. Apparent michaelis constants (Km) and maximal reaction velocities (Vmax) are calculated by non-linear regression with the software GraphPad Prism 5 (GraphPad Software, La Jolla, USA) using a substrate inhibition model. […] Weighted means (by standard error) of Km and IC50 values are calculated from at least three independent experiments.
as §8
Easy comparison and ranking of each trait is enabled by normalizing tolerance indexes on Arabidopsis wild-type HPPD.

Assay [8] deals with Chlamydomonas HPPD1a. Description: HPPD activity assay, wildtype enzyme. The assay is classed as biochemical, Chlamydomonas reinhardtii. The following applies: Table 12, normalized to Arabidopsis HPPD. As for the experimental part: as §1, §2, §3, §4, §5, §9
The subject of assay [9] is non-transgenic Arabidopsis plants (WT). Kind of assay: Greenhouse herbicide spray test, Arabidopsis plants (T2). The assay is classed as in vivo, Arabidopsis thaliana. The following applies: two weeks after treatment. From the text:
For post emergence treatment, the test plants are first grown to a height of 3 to 15 cm, depending on the plant habit, and only then treated with the herbicides. For this purpose, the test plants are either sown directly and grown in the same containers, or they are first grown separately and transplanted into the test containers a few days prior to treatment.
Additionally, T1 and T2 transgenic Arabidopsis plants can be tested for improved tolerance to N-heterocyclyl-arylcarboxamides in a greenhouse studies. Herbicide injury scoring is done 2-3 weeks after treatment and is rated on a scale of 0 to 100%, 0% being no injury and 100% being complete death.

Assay [10] concerns Synechoccus HPPD. Kind of assay: HPPD activity assay, wildtype enzyme. The assay is classed as biochemical, Synechococcus. The following applies: Table 12, normalized to Arabidopsis HPPD. How it is done: as §1, §2, §3, §4, §5, §9

As for `Cc1nonc1NC(=O)c1ccc(S(C)(=O)=O)c(S(C)(=O)=O)c1C` [Inhibitor 1, 2-methyl-N-(4-methyl-1,2,5-oxadiazol-3-yl)-3,4-bis(methylsulfonyl)benzamide], the “Normalized tolerance index TI Inhibitor 1” value in assay [1] was 1.7; in assay [2], 183.5; in assay [3] it was 12.4; in [4], 3.5; in assay [5] it was 1.3; in [6], 5.4. Moreover, the “Normalized tolerance index TI Inhibitor 1” value stood at 1 in [7] (Table 12, normalized to Arabidopsis HPPD SEQ ID NO:53 (reference)); 1 in assay [7] (Table 15, Arabidopsis HPPD Wildtype (reference)); 1.7 in assay [8]; 69.9 in assay [10]. The Ki in assay [7] stood at 1.6 nM. For the same compound, the “TI (tolerance index)” value in assay [7] (not normalized, Table 11, Arabidopsis enzyme) amounted to 1.6E−3. Moreover, the Injury evaluation was 92% in assay [9] (WT (control of AtHPPD events), 1.56 g/ha); 91% in assay [9] (WT (control of AtHPPD events), 3.125 g/ha); 97% in assay [9] (WT (control of AtHPPD events), 6.25 g/ha); 97% in assay [9] (WT (control of AtHPPD events), 12.5 g/ha); 98% in assay [9] (WT (control of HvHPPD events), 1.56 g/ha); 98% in assay [9] (WT (control of HvHPPD events), 3.125 g/ha). Also, the Injury evaluation is on record as 100% in assay [9] (WT (control of HvHPPD events), 6.25 g/ha) and 100% in assay [9] (WT (control of HvHPPD events), 12.5 g/ha).

Broadly, the Ki is the dissociation constant of the complex between target and ligand, obtained from inhibition or displacement. High values mean a looser hold on the target, low ones a stronger hold on the target.
